Data taken from publication PMC5271370, “A High-Content Assay Enables the Automated Screening and Identification of Small Molecules with Specific ALDH1A1-Inhibitory Activity” (PLoS ONE, 2017).
Like-named read-outs stand apart in the source and are kept apart here.

Tested on: MIA PaCa-2 cells
Assay: 1,536-well high-content imaging ALDEFLUOR assay, MIA PaCa-2
Assay type: cell-based, human
Conditions: for Activity in ALDEFLUOR assay, MIA PaCa-2: semi-automated, active = high quality concentration response curve and >50% efficacy, up to 45.8 μM
Protocol: To miniaturize the assay into a 1536-well format amenable to qHTS, we chose MIA PaCa-2 and HT-29 because of their high levels of ALDH1A1(Fig 1A). Utilizing the 8-step protocol described by Ming et al. as a starting point, we developed a “semi-automated” protocol described in S1 Table. Briefly, we plated 1,000 cells in a volume of 5 μL/well into black-optical quality clear bottom 1,536-well plates, and allowed cells to attach overnight. Culture media was subsequently removed by inverting and centrifuging plates using a plate adaptor as previously described and replaced with 5 μL of a solution of either 500 or 100 nM BAAA substrate in ALDEFLUOR buffer. To identify cells based on nuclear staining, we also included 0.5 nM Hoechst 33342 in the above buffer. […] After incubating the plate for 30 minutes at 37°C, 5% CO2, 85% RH, the remaining substrate was removed by centrifugation as above and replaced with 3 μL of ALDEFLUOR buffer. Fluorescence was subsequently imaged using the IN Cell Analyzer 2200 high-content widefield fluorescence based imager and the resulting images were quantified using the IN Cell Investigator v1.6.2 analysis software (see Experimental Procedures for analysis details).
The ALDEFLUOR kit was purchased from […] Technologies (Vancouver, Canada; #01700). Cells (5 μL) were dispensed into black, optical quality (cyclic olefin copolymer) clear bottom, medium binding TC treated 1,536-well plates (Aurora Microplates, Whitefish MT) using a Multidrop Combi dispenser (ThermoFisher) and incubated overnight (37°C, 5% CO2, 85% RH). Media was subsequently removed by centrifuging plates upside down using a plate adaptor to collect media. A solution of BAAA substrate ([…] Technologies) and Hoechst 33342 (ThermoFisher, final concentrations of 500 nM and 0.5 nM, respectively) in ALDEFLUOR buffer ([…] Technologies #01700) was dispensed onto cells using a Multidrop Combi followed by immediate transfer (23 nL) of compound or control solutions using a Wako Pin-tool (final percentage of DMSO in the cell plates was 0.5%). Unless otherwise noted, all compounds were assayed as 16-point dilutions spanning a final concentration range of 1.4 nM to […]. […] Cells were incubated for 30 minutes or the indicated amount of time at 37°C, 5% CO2, 85% RH to allow the conversion of BAAA into BAA. Supernatant was subsequently removed by centrifugation as described above, then ALDEFLUOR buffer (3 μl) was dispensed by Multidrop Combi before imaging on an IN Cell 2200 (GE Healthcare).
The above assay was modified for an online robotic screening system. After cell plating and overnight incubation, 4 μL of media were removed using a 64-tip metal aspirator head on a Wako aspirator station, leaving 1 μL remaining in the well, followed by a 4 μL dispense of BAAA and Hoechst 33342 in ALDEFLUOR buffer, for a final concentration of 500 nM and 0.5 nM, respectively. Immediately following the dispense, 23 nL of compound or control solutions were transferred using a Wako Pin-tool. Cells were incubated for 30 minutes at 37°C, 5% CO2, 85% RH, followed by a 4 μL media removal using the Wako aspirator, and a subsequent 3 μL addition of ALDEFLUOR buffer. Plates were then immediately read on the IN Cell 2200 as described below.
For images captured on the IN Cell 2200 widefield automated microscope, a 10x 0.45 NA Plan Apo objective lens was used to capture the entire well of the 1,536-well plate using standard DAPI (390/18x, 432/48m) and FITC (475/28x, 525/48m) filter sets at 50 msec and 100 msec exposures, respectively. Images were subsequently analyzed using IN Cell Investigator v1.6.2 analysis software’s canned Multi-Target Analysis algorithm (GE Healthcare). Hoechst stained nuclei were identified using top hat segmentation with a minimum area of 75 μm^2 and sensitivity of 93. […]

[1] = Homo sapiens, MIA PaCa-2, 0.5 h, validation set, semi-automated protocol, 16-point dilution, 1,000 cells/well, 500 nM BAAA, 30 min, read-out: Aldefluor IC50 MIA PaCa-2
[2] = validation set, semi-automated protocol, 16-point dilution, 1,000 cells/well, 500 nM BAAA, 30 min, read-out: Aldefluor IC50 MIA PaCa-2

Compound	IC50 [2] [µM]	Activity in ALDEFLUOR assay, MIA PaCa-2	other results
CC(C)=CCCC(C)=CC=O (mixture of isomers) [Citral]	27.8		IC50 [1]: ~27 µM
COc1ccc(C(=O)CCN(C)C)cc1F [Aldi-2]	18		
CC(C)(C)c1ccc(S(=O)(=O)/C=C/C#N)cc1 [Bay-11-7085]	20		
Cc1nc2ccccc2n1S(=O)(=O)c1ccc(F)cc1 [CB7]		tested negative	
CCOc1ccc(NCC(=O)Nc2ccc(Cl)cc2C)cc1 [CID 725345]	9.46		
COc1cccc2cc(C(=O)CC3(O)C(=O)N(Cc4ccccc4)c4ccccc43)c(=O)oc12 (stereo not shown) [CID 2929292]		tested negative	
CCN(CC)c1ccc(C=O)cc1 [DEAB, 4-N,N-diethylaminobenzaldehyde]	3.44		
O=c1c(-c2ccc(O)cc2)coc2cc(O[C@@H]3O[C@H](CO)[C@@H](O)[C@H](O)[C@H]3O)ccc12 [Daidzin]		tested negative	
CCN(CC)C(=S)SSC(=S)N(CC)CC [Disulfiram]			IC50 [1]: 11 µM
Cc1cc2c(C(C)C)c(O)c(O)c(C=O)c2c(O)c1-c1c(C)cc2c(C(C)C)c(O)c(O)c(C=O)c2c1O [Gossypol]		inactive	
Nc1ccccc1C(=O)CC(N)C(=O)O (stereo not shown) [Kynurenine]		tested negative	
C[S+](=O)([O-])c1ccc(Cn2c3c(c4cc(F)cc(F)c42)CCCC3CC(=O)O)cc1 [L-670596]			IC50 (Homo sapiens, MIA PaCa-2, retest of screen hits, 11-point dose response 0.77 nM to 45.8 μM, read-out: ALDEFLUOR IC50 MIA PaCa2): ~10 µM; IC50 (retest of screen hits, 11-point dose response 0.77 nM to 45.8 μM, read-out: ALDEFLUOR IC50 MIA PaCa2): 10.8 µM
C#CCN(C)Cc1ccccc1 [Pargyline]		inactive	IC50 (Homo sapiens, MIA PaCa-2, fully automated protocol-2 with two washes, read-out: IC50 of BAA signal reduction, automated protocol): ~5 µM
CC(C)N(C(=O)CCl)c1ccccc1 [Propachlor]			IC50 (Homo sapiens, MIA PaCa-2, read-out: ALDEFLUOR IC50 MIA PaCa2): 0.3 µM
O=C1Nc2ccccc2C1=O [indoline-2,3-dione]			IC50 [1]: 12 µM
CVT-10216		tested negative	
